Measurements taken from BindingDB's records for doi:10.1016/j.bmc.2015.01.060 (University of Florida, 2015).

What was measured:
[1] = biological target: 5-hydroxytryptamine receptor 2B (Homo sapiens, UniProt P41595); test: Displacement of [3H]Mesulergine from human 5-HT2B receptor expressed in HEK293 cells by scintillation counting analysis
[2] = biological target: T1, 5-hydroxytryptamine receptor 2C (Homo sapiens, UniProt P28335); test: Displacement of [3H]Mesulergine from human 5-HT2C-INI receptor expressed in HEK293 cells by scintillation counting analysis
T1 sequence (P28335 whole entry): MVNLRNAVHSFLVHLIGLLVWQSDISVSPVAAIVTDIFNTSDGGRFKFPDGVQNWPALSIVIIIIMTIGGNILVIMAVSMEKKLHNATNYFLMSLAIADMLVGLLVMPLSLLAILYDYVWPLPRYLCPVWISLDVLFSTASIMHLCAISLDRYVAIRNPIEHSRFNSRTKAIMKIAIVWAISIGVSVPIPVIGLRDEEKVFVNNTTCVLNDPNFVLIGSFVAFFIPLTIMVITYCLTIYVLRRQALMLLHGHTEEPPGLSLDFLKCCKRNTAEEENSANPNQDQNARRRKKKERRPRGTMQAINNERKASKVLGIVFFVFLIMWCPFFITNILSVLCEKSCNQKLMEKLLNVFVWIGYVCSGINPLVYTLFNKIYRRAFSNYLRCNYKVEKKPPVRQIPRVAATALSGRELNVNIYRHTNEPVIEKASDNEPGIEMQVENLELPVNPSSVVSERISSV

5-hydroxytryptamine receptor 2B, sequence (P41595 whole entry): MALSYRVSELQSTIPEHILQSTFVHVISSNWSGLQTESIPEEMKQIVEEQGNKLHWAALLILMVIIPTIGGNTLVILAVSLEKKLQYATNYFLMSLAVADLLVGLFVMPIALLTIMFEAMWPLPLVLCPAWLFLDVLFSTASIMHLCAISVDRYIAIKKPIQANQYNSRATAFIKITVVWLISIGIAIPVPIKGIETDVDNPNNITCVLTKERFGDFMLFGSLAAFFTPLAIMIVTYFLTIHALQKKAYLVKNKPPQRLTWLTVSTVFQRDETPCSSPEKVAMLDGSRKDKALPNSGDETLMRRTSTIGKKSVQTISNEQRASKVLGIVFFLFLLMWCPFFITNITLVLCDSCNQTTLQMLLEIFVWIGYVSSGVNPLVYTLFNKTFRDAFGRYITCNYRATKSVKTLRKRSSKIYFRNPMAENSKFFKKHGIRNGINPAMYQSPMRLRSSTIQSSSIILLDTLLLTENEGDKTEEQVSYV

CN(C)[C@H]1Cc2ccccc2[C@H](c2ccc([N+](=O)[O-])cc2)C1
Ki [1]: 4.1 µM
Ki [2]: 1 µM
